For the experiment, the target named is T1, human H1 receptor (Homo sapiens, UniProt P35367).
T1 construct: purchased Euroscreen SA, Brussels, Belgium ES-390-M; host or cells: CHO-K1
T1 sequence (P35367 whole entry): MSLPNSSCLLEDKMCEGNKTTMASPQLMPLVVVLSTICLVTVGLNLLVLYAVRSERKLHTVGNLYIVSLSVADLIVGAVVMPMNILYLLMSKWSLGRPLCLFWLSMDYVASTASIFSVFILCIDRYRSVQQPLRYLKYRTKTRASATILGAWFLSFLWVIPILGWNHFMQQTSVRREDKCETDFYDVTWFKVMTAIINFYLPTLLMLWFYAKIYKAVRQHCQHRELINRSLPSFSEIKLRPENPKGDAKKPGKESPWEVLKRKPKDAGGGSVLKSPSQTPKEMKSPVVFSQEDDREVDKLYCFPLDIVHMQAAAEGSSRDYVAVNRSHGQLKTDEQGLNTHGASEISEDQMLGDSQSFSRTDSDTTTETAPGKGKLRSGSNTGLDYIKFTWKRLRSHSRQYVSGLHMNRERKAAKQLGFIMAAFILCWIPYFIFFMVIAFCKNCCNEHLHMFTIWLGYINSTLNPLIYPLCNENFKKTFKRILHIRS
Put plainly: Histamine H1 receptor binding, competition displacement of [3H]-pyrilamine. The note with it: displacement of 1 nM [3H]-pyrilamine; membranes from recombinant CHO-K1 cells expressing the human H1 receptor; 1 hour at room temperature; read-out: H1 pKi/[1328_S] (converted). The protocol: Histamine H1 receptor binding activity of compounds of the invention was assessed by competition displacement of 1 nM [3H]-pyrilamine (Amersham, Bucks, Product code TRK 608, specific activity 30 Ci/mmol) to 2 μg membranes prepared from recombinant CHO-K1 cells expressing the human H1 receptor (Euroscreen SA, Brussels, Belgium, product code ES-390-M) in assay buffer (50 mM Tris pH 7.4 containing 2 mM MgCl2, 250 mM sucrose and 100 mM NaCl) for 1 hour at room temperature.
On the technique in general: In a radioligand displacement assay an active substance lowers the binding of a labelled ligand.
On to `Cc1c(Cl)ccc(OC2CCN(CC3CCN(C(=O)c4ccccc4C(=O)O)CC3)CC2)c1Cl` [Example 2, 2-[[4-[[4-(2,4-Dichloro-3-methylphenoxy)-1-piperidinyl]methyl]-1-piperidinyl]carbonyl]-benzoic acid], for which the Ki is 63.1 nM. To `CS(=O)(=O)c1cc(C(=O)N2CCC(CN3CCC(Oc4ccc(Cl)c(Cl)c4)CC3)CC2)ccc1O` [Example 19, 4-[[4-(3,4-dichlorophenoxy)-1-piperidinyl]methyl]-1-[4-hydroxy-3-(methylsulfonyl)benzoyl]-piperidine] belongs 31.6 nM; to `O=C(O)c1ccccc1C(=O)N1CCC(CN2CCC(Oc3ccc(Cl)c(Cl)c3)CC2)CC1` [Example 1, 2-[[4-[[4-(3,4-dichlorophenoxy)-1-piperidinyl]methyl]-1-piperidinyl]carbonyl]-benzoic acid], 316 nM. Regarding `Cc1c(OC2CCN(CC3CCN(C(=O)c4ccccc4C(=O)O)CC3)CC2)ccc(Cl)c1Cl` [Example 3, 2-[[4-[[4-(3,4-Dichloro-2-methylphenoxy)-1-piperidinyl]methyl]-1-piperidinyl]carbonyl]-benzoic acid], the Ki was 200 nM. For `O=C(O)Cc1ccccc1C(=O)N1CCC(CN2CCC(Oc3ccc(Cl)c(Cl)c3)CC2)CC1` [Example 12, 2-[[4-[[4-(3,4-dichlorophenoxy)-1-piperidinyl]methyl]-1-piperidinyl]carbonyl]-benzeneacetic acid], the Ki was 251 nM.

(Values after US20060281726A1, “Piperidine derivatives for the treatment of chemokine or h1 mediated disease state” (priority 2003, published 2006).)
